# Reference: publication doi:10.1101/2022.06.02.493408v1 (biorxiv, 2022)
# Target: T1, WT BetP (AMP-BetP) (Corynebacterium glutamicum, UniProt P54582)
# T1 sequence (P54582 1-595): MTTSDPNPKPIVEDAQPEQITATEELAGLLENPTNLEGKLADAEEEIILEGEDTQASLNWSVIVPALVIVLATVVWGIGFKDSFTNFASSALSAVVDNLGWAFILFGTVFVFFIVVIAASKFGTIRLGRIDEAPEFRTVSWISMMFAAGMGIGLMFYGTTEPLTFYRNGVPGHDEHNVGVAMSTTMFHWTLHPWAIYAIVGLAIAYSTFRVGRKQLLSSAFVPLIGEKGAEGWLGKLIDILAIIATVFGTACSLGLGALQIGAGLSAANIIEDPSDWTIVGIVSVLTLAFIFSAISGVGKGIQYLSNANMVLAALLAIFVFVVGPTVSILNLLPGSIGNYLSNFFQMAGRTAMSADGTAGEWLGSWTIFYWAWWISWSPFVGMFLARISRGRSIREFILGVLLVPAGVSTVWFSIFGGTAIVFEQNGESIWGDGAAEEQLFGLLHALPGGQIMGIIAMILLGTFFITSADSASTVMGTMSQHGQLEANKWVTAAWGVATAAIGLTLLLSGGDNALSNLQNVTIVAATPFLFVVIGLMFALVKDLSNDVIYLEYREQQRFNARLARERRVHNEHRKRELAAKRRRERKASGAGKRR
# Assay: biochemical
compound,measurement,value
C[N+](C)(C)CC(=O)[O-] [betaine],Kd,188 ± 34 µM
